US20080045508A1, “SUBSTITUTED AMINOMETHYL BENZAMIDE COMPOUNDS” (priority 2006, published 2008)

Experiments:
[1] = target: cloned human H3 receptor, stably expressed in SK-N-MC cells (Homo sapiens, UniProt Q9Y5N1); assay: H3 receptor binding
rat brain SERT = rat brain SERT (Rattus norvegicus, UniProt P31652); assay: biochemical
Protocol: The supernatant was removed and re-centrifuged at 15,000 rpm for 30 min. […] Membranes were incubated with 0.6 nM [^3H]-Citalopram plus/minus test compounds for 60 min at 25° C. and harvested by rapid filtration over GF/C glass fiber filters (pretreated with 0.3% polyethylenimine) followed by four washes with ice-cold buffer. Nonspecific binding was defined in the presence of 100 μM fluoxetine.

human H3 receptor = human H3 receptor (Homo sapiens, UniProt Q9Y5N1); assay: Cyclic AMP accumulation (reporter gene assay, SK-N-MC cells)
Protocol: Sublines of SK-N-MC cells were created that expressed a reporter construct and the human H3 receptor. The reporter gene (β-galactosidase) is under the control of multiple cyclic AMP responsive elements. In 96-well plates, histamine was added directly to the cell media followed 5 min later by an addition of forskolin (5 μM final concentration). When appropriate, antagonists were added 10 min prior to agonist addition. After a 6-h incubation at 37° C., the media was aspirated and the cells washed with 200 μL of phosphate-buffered saline followed by a second aspiration. […] Color was developed using 25 μL of 1 mg/mL substrate solution (chlorophenolred β-D galactopyranoside; Roche Molecular Biochemicals, Indianapolis, Ind.).

[2] = target: human SERT (HEK293 membranes) (Homo sapiens, UniProt P31645); assay: biochemical
human SERT (HEK293 membranes), sequence (P31645 whole entry): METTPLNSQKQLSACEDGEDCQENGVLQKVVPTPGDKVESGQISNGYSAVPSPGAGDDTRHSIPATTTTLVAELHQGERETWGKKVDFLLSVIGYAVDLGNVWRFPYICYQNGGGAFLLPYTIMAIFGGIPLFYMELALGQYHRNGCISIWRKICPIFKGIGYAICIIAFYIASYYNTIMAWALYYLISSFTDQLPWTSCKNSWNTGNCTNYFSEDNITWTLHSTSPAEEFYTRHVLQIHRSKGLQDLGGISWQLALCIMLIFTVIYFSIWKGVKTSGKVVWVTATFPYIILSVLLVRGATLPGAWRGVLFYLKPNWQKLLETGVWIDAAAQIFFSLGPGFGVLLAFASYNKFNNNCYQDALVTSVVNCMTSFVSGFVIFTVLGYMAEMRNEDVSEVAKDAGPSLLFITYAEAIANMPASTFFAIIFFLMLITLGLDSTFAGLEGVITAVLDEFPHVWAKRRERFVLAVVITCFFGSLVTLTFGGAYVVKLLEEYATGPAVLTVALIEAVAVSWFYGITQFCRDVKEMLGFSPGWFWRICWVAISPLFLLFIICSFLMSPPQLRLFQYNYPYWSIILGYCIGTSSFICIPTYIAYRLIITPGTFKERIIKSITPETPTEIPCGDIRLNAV
Protocol: Homogenized HEK293 (Human Embryonic Kidney) membranes expressing the human SERT were incubated with ^3H-citalopram (SERT) at rt for 1 h in 50 mM Tris, 120 mM NaCl, 5 mM KCl (pH 7.4). Nonspecific binding was determined in the presence of 10 μM fluoxetine for the SERT. The membranes were washed and the radioactivity was counted as above.

cloned human H3 receptor, stably expressed in SK-N-MC cells, sequence (Q9Y5N1 whole entry): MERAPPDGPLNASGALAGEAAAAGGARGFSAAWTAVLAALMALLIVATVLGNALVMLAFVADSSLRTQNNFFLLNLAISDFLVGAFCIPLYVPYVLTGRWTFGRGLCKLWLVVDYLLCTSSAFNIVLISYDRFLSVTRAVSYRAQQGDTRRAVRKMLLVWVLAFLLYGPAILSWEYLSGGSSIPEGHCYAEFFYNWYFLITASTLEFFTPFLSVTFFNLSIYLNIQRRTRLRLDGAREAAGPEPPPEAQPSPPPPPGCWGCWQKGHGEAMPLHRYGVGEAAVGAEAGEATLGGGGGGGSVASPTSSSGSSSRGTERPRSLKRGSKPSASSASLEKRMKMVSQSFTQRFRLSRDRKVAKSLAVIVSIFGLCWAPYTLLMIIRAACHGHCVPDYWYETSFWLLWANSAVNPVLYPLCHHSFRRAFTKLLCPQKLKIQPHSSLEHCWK
rat brain SERT, sequence (P31652 whole entry): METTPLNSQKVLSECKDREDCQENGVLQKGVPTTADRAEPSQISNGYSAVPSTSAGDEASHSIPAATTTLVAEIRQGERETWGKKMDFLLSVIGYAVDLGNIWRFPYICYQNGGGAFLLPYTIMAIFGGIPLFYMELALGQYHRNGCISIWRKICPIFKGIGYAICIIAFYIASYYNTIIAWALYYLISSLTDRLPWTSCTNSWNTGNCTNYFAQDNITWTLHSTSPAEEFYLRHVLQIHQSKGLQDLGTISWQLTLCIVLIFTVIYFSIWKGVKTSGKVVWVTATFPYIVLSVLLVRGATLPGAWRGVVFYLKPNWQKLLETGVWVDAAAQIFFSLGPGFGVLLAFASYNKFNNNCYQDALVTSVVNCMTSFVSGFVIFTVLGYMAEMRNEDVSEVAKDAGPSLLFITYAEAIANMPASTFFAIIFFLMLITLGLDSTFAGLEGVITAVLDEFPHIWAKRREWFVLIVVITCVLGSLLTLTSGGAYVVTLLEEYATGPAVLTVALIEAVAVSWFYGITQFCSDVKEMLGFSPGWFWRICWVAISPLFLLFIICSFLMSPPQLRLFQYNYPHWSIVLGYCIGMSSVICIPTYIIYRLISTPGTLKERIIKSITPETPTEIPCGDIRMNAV
human H3 receptor, sequence (Q9Y5N1 whole entry): as the sequence (Q9Y5N1 whole entry) above

Ki [1] [nM] | Ki (rat brain SERT) [nM] | Ki [2] [nM] | SMILES | Kb (human H3 receptor) [nM]
3 | – | – | CC(C)N1CCCN(C(=O)c2ccc(CN3CCOC(CO)C3)c(Oc3ccccc3)c2)CC1 (stereo not shown) [Example 53, [4-(2-Hydroxymethyl-morpholin-4-ylmethyl)-3-phenoxy-phenyl]-(4-isopropyl-[1,4]diazepan-1-yl)-methanone] | –
6 | 17 | – | CNCc1ccc(C(=O)N2CCCN(C3CC3)CC2)cc1Oc1ccc(Cl)c(Cl)c1 [Example 52, (4-Cyclopropyl-[1,4]diazepan-1-yl)-[3-(3,4-dichloro-phenoxy)-4-methylaminomethyl-phenyl]-methanone] | –
0.9 | 15 | – | CNCc1cc(C(=O)N2CCCN(C3CC3)CC2)ccc1Oc1ccccn1 [Example 39, (4-Cyclopropyl-[1,4]diazepan-1-yl)-[3-methylaminomethyl-4-(pyridin-2-yloxy)-phenyl]-methanone] | –
0.9 | 28 | – | CNCc1cc(C(=O)N2CCCN(C3CC3)CC2)ccc1Oc1ccc(F)cc1Cl [Example 33, [4-(2-Chloro-4-fluoro-phenoxy)-3-methylaminomethyl-phenyl]-(4-cyclopropyl-[1,4]diazepan-1-yl)-methanone] | –
4 | 410 | – | CNCc1cc(C(=O)N2CCCN(C3CC3)CC2)ccc1Sc1cc(C(F)(F)F)ccn1 [Example 47, (4-Cyclopropyl-[1,4]diazepan-1-yl)-[3-methylaminomethyl-4-(4-trifluoromethyl-pyridin-2-ylsulfanyl)-phenyl]-methanone] | –
2 | 59 | – | Cc1ccc(Oc2ccc(C(=O)N3CCCN(C4CC4)CC3)cc2CN(C)C)cn1 [Example 36, (4-Cyclopropyl-[1,4]diazepan-1-yl)-[3-dimethylaminomethyl-4-(6-methyl-pyridin-3-yloxy)-phenyl]-methanone] | –
2 | 62 | – | CN(Cc1cc(C(=O)N2CCCN(C3CC3)CC2)ccc1Oc1ccc(Cl)cc1)C1CC1 [Example 34, {4-(4-Chloro-phenoxy)-3-[(cyclopropyl-methyl-amino)-methyl]-phenyl}-(4-cyclopropyl-[1,4]diazepan-1-yl)-methanone] | –
2 | 5000 | – | CNCc1cc(C(=O)N2CCCN(C3CC3)CC2)ccc1Sc1ccccn1 [Example 38, (4-Cyclopropyl-[1,4]diazepan-1-yl)-[3-methylaminomethyl-4-(pyridin-2-ylsulfanyl)-phenyl]-methanone] | –
0.6 | 31 | – | CNCc1cc(C(=O)N2CCCN(C3CC3)CC2)ccc1Oc1cccc(F)c1F [Example 32, (4-Cyclopropyl-[1,4]diazepan-1-yl)-[4-(2,3-difluoro-phenoxy)-3-methylaminomethyl-phenyl]-methanone] | –
2 | 5 | – | CNCc1cc(C(=O)N2CCCN(C3CC3)CC2)ccc1Sc1ccc(Cl)cc1 [Example 37, [4-(4-Chloro-phenylsulfanyl)-3-methylaminomethyl-phenyl]-(4-cyclopropyl-[1,4]diazepan-1-yl)-methanone] | –
11 | 2000 | – | Cc1ccc(Oc2cc(C(=O)N3CCCN(C(C)C)CC3)ccc2CN(C)C)c(C)n1 [Example 49, [4-Dimethylaminomethyl-3-(2,6-dimethyl-pyridin-3-yloxy)-phenyl]-(4-isopropyl-[1,4]diazepan-1-yl)-methanone] | –
2 | – | – | COCCN(CCOC)Cc1ccc(C(=O)N2CCCN(C3CC3)CC2)cc1OCc1ccccc1 [Example 54, (3-Benzyloxy-4-{[bis-(2-methoxy-ethyl)-amino]-methyl}-phenyl)-(4-cyclopropyl-[1,4]diazepan-1-yl)-methanone] | –
2 | 15 | – | CNCc1cc(C(=O)N2CCCN(C3CC3)CC2)ccc1Oc1cccc(Cl)c1Cl [Example 35, (4-Cyclopropyl-[1,4]diazepan-1-yl)-[4-(2,3-dichloro-phenoxy)-3-methylaminomethyl-phenyl]-methanone] | –
5.2 | 7.9 | 9.8 | CNCc1cc(C(=O)N2CCCN(C3CCC3)CC2)ccc1Oc1ccc(Cl)c(Cl)c1 [Example 48, (4-Cyclobutyl-[1,4]diazepan-1-yl)-[4-(3,4-dichloro-phenoxy)-3-methylaminomethyl-phenyl]-methanone] | –
3 | – | – | O=C(c1ccc(CN2CCOCC2)c(Oc2cccnc2)c1)N1CCCN(C2CC2)CC1 [Example 51, (4-Cyclopropyl-[1,4]diazepan-1-yl)-[4-morpholin-4-ylmethyl-3-(pyridin-3-yloxy)-phenyl]-methanone] | –
4 | 2 | – | CNCc1cc(C(=O)N2CCCN(C3CC3)CC2)ccc1OCc1ccc(Cl)c(Cl)c1 [Example 42, (4-Cyclopropyl-[1,4]diazepan-1-yl)-[4-(3,4-dichloro-benzyloxy)-3-methylaminomethyl-phenyl]-methanone] | –
9 | – | – | CC(C)N1CCCN(C(=O)c2ccc(CN3CCCCC3)c(OCc3ccccc3)c2)CC1 [Example 50, (3-Benzyloxy-4-piperidin-1-ylmethyl-phenyl)-(4-isopropyl-[1,4]diazepan-1-yl)-methanone] | –

SMILES | Ki [1] [nM] | Ki (rat brain SERT) [nM] | Ki [2] [nM] | Kb (human H3 receptor) [nM]
O=C(c1ccc(CN2CCCCC2)c(Oc2cccnc2)c1)N1CCCN(C2CC2)CC1 [Example 41, (4-Cyclopropyl-[1,4]diazepan-1-yl)-[4-piperidin-1-ylmethyl-3-(pyridin-3-yloxy)-phenyl]-methanone] | 1 | 10000 | – | 0.0631
O=C(c1ccc(CNC2CC2)c(Oc2cccnc2)c1)N1CCCN(C2CC2)CC1 [Example 40, [4-Cyclopropylaminomethyl-3-(pyridin-3-yloxy)-phenyl]-(4-cyclopropyl-[1,4]diazepan-1-yl)-methanone] | 2 | 5000 | – | 0.501
